We go through two compounds from patent US6565891B1, “Nutritional supplement for children” (Tsar Health Private Ltd., priority 2002, dated 2003).

For series [1] the following is noted: in vivo; cited from earlier work.
For another series, the system named is blood lymphocytes. The series can be described thus: Zinc dose response: lymphocyte response to PHA (stimulation index). Format: in vivo, human. The conditions noted are these: children age 4-12 years, diet zinc 5 mg, median (standard deviation). The procedure: (§1) The basic concept underlying the assessment of the most optimum nutrient amounts for a given age group uses the principle of“dose-response curves”. At least four groups of individuals were provided with various amounts of a given nutrient and their immune responses were measured using established and accepted techniques. The amount of a nutrient that gave the best response was considered the optimum amount. Dose response curves were determined for all vitamins and trace elements considered essential for human health, particularly immunity.
Data for the dose response curve for zinc in a group of 4 to 12 year old children is shown in FIGS. 1 and 2, with the total amount of zinc taken is shown for each group. To determine the magnitude of immune response, an aliquot of blood was withdrawn from each subject in the study, blood lymphocytes were separated, washed and mixed with the mitogen phytohemagglutinin (PHA) in previously determined optimum amount. The optimum amount of PHA used in the experiments was predetermined by a set of dose response curves using lymphocytes of a healthy donor and four different concentrations of PHA. After culture in a sterile environment for 72 hours, the cells were washed and mixed with radioactive thymidine. The same steps were undertaken in a control sample in which only the culture medium was used, not PHA. The cells were washed and radioactivity determined.
(§2) The ratio of radioactivity in the test samples divided by radioactivity in control samples gave the “stimulation response” shown in FIGS. 1 and 2.

Another series deals with Thymulin activity. The series can be described thus: Zinc dose response: thymulin activity. In kind it is in vivo, human. The conditions noted are these: children age 4-12 years. The procedure:
as §1, §2

Another series relates to Antibody response. The series can be described thus: Zinc dose response: antibody response. The conditions noted are these: children age 4-12 years. In kind it is in vivo, human. The method, then: as §1, §2
Another series has as its system Interleukin-2. The series can be described thus: Zinc dose response: interleukin-2. In kind it is in vivo, human. The conditions noted are these: children age 4-12 years, median (standard deviation). The procedure: as §1, §2

Consider `Cc1ncc(C[n+]2csc(CCO)c2C)c(N)n1` [Thiamin], for which the “biologic half-life in the body” value in series [1] was “about 15 days”.
On to `[Zn]` [zinc], for which the “Lymphocyte response to PHA (stimulation index)” value in the series with blood lymphocytes (7 mg supplemental zinc) is 86(11); with blood lymphocytes (20 mg supplemental zinc), 54(9); in the series with blood lymphocytes (50 mg supplemental zinc), 41(8). The “Thymulin activity (median reciprocal titre)” value in the series on Thymulin activity (7 mg supplemental zinc) stood at 216; with Thymulin activity (20 mg supplemental zinc), 187; with Thymulin activity (50 mg supplemental zinc), 166. The entries for the “Antibody response (median reciprocal titre)” value in the series with Antibody response (7 mg supplemental zinc), in the series with Antibody response (20 mg supplemental zinc) and in the series with Antibody response (50 mg supplemental zinc) were 318, 129 and 73, respectively. Also, the Interleukin-2 is 16(2.0) units/ml with Interleukin-2 (7 mg supplemental zinc), 11(1.5) units/ml in the series on Interleukin-2 (20 mg supplemental zinc) and 8(1.3) units/ml with Interleukin-2 (50 mg supplemental zinc).
